ChEMBL document CHEMBL1138708, “Synthesis of analogs of (1,4)-3- and 5-imino oxazepane, thiazepane, and diazepane as inhibitors of nitric oxide synthases” (Bioorg Med Chem Lett, 2004)

Assays:
Nitric oxide synthase 1 = Nitric oxide synthase 1 (Homo sapiens, UniProt P29475); test: Inhibitory concentration against Neuronal nitric oxide synthase
Nitric oxide synthase 3 = molecular target: T1, Nitric oxide synthase 3 (Homo sapiens, UniProt P29474); test: Inhibitory concentration against Endothelial nitric oxide synthase
T1 sequence (P29474 whole entry): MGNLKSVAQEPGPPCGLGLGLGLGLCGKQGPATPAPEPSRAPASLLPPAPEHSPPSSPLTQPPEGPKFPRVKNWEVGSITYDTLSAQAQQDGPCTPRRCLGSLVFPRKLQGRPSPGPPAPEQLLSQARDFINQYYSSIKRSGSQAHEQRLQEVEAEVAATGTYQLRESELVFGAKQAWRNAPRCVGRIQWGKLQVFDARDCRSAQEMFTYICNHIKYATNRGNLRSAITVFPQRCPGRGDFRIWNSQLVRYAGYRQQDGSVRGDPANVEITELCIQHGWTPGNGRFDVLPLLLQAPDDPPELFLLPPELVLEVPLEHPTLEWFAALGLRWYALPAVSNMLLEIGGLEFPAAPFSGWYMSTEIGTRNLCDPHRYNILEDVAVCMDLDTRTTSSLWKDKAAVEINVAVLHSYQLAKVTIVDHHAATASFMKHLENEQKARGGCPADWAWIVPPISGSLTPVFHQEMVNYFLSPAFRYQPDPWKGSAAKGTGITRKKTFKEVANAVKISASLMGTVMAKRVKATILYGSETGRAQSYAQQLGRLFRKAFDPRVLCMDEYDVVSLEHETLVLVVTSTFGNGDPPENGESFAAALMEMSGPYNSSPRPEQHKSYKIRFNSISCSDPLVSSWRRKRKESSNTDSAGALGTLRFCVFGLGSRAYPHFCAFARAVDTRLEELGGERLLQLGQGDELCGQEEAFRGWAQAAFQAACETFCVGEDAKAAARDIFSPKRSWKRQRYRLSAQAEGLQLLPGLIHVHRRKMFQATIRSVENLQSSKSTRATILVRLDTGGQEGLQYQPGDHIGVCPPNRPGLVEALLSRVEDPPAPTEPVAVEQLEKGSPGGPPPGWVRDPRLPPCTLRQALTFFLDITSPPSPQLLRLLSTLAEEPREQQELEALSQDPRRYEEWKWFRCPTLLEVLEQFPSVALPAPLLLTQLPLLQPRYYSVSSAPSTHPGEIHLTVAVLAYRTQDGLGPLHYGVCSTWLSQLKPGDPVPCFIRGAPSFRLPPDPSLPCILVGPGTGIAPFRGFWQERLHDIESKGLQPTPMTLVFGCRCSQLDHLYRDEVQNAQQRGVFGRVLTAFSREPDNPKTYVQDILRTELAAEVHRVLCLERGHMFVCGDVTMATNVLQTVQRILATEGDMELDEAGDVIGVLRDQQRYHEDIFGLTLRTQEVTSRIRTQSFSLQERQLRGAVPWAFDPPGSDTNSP

[1] = molecular target: Nitric oxide synthase (inducible and endothelial) (Homo sapiens) (UniProt P35228+P29474); test: Ratio of inhibitory concentration against Endothelial nitric oxide synthase to Inducible nitric oxide synthase; type: protein assay
[2] = molecular target: Nitric oxide synthase, inducible (Homo sapiens, UniProt P35228); test: Inhibitory concentration against Inducible nitric oxide synthase
Sequence of Nitric oxide synthase, inducible (P35228 whole entry): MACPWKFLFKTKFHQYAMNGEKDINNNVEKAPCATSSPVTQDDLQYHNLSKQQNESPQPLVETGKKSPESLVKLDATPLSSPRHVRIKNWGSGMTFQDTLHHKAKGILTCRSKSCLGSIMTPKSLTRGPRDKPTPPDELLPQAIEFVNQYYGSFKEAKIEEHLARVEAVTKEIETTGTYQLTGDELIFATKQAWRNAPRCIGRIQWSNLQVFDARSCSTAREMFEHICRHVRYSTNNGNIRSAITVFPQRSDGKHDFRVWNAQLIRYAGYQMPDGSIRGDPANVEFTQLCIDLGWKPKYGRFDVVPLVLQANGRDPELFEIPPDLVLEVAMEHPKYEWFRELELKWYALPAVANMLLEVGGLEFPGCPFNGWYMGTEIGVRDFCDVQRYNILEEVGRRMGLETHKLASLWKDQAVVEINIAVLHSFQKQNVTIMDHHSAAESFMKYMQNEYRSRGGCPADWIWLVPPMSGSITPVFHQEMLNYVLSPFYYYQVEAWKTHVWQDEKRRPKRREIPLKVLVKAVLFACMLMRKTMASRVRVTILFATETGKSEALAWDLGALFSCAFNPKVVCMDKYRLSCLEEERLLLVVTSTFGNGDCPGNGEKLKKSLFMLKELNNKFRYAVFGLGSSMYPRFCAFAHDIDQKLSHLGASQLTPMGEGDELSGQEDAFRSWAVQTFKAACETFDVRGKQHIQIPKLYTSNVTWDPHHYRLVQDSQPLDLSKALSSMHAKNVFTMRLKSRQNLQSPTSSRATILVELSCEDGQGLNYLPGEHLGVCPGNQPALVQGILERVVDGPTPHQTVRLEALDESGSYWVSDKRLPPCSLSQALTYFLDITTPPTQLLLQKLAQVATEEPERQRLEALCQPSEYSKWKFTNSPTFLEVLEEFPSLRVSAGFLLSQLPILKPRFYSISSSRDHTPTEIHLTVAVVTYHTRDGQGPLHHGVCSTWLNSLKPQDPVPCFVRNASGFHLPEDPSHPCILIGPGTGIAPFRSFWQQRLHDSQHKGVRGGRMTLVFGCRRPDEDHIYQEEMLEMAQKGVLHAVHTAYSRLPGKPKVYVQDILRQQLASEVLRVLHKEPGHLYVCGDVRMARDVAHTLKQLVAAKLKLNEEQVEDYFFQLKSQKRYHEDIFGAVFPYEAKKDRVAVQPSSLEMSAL

Sequence of Nitric oxide synthase 1 (P29475 whole entry): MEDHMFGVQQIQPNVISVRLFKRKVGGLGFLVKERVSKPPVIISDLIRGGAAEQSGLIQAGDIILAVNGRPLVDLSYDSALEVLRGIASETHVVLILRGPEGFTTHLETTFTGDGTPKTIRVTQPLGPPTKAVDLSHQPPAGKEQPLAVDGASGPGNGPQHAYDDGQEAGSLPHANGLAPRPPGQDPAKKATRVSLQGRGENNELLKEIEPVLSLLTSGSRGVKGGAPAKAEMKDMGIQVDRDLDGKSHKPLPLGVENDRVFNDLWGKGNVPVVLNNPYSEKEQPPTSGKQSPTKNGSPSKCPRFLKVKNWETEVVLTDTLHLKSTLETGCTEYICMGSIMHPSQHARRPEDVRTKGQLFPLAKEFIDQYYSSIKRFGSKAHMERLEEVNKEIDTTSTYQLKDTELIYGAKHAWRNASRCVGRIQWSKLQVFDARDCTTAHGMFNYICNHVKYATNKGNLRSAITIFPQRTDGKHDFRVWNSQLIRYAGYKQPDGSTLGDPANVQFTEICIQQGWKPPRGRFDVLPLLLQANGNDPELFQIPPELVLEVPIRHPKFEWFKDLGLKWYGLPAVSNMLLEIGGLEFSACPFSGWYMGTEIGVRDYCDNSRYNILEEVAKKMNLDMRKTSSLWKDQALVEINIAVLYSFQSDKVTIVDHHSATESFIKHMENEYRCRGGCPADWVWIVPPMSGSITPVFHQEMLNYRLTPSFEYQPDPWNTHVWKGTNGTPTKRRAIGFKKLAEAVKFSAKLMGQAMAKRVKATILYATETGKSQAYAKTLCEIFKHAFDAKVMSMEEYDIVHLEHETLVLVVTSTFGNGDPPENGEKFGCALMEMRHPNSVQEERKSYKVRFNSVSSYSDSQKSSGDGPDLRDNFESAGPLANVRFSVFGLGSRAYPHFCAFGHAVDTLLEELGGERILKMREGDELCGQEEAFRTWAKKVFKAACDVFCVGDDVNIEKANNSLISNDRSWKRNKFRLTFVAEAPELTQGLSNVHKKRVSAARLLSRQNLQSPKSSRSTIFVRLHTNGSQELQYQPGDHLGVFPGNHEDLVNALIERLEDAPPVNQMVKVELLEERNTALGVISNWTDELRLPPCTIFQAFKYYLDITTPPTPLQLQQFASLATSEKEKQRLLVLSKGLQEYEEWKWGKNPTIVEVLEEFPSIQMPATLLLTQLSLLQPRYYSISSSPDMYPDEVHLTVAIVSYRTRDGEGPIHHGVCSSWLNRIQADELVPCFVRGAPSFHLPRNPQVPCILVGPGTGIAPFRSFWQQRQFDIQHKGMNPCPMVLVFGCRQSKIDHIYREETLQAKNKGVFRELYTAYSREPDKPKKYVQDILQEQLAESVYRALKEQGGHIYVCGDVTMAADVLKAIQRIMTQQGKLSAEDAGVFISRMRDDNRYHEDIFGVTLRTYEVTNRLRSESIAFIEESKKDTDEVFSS

Structure (SMILES) | IC50 (Nitric oxide synthase 1) [nM] | IC50 (Nitric oxide synthase 3) [nM] | Selectivity [1] | IC50 [2] [nM]
NC1=NCCNCC1 | > 50000 | > 50000 |  | > 50000
CCC[C@@H]1CSCCC(=N)N1 | 7100 | 50000 |  | 1200
CC(C)CC1CSCCC(N)=N1 (stereo not drawn) | 1900 | 60000 | 186 | 320
CC1CC(N)=NC2CCCCC2S1 (stereo not drawn) | > 50000 | > 50000 |  | > 50000
CC1CSCCN=C1N (stereo not drawn) | > 50000 | > 50000 |  | > 50000
NC1=NCCCSC1 | 2800 | 10500 | 8.8 | 1200
CCC[C@@H]1CSCCC(N)=N1 |  |  | 42 | 
NC1=NCCSCC1 | 4300 | 13400 | 9.5 | 1400
CCCC1CSCCC(N)=N1 (stereo not drawn) | 2800 | 50000 | 172 | 290
CC(=N)NCCCC[C@H](N)C(=O)O |  |  | 3.7 | 
CCCCC1CSCCC(N)=N1 (stereo not drawn) | 1200 | 77000 | 164 | 500
NC1=NCCOCC1 | 8700 | 25000 | 2.1 | 11800

Further lines, results first:

IC50 (Nitric oxide synthase 1) [nM] | IC50 (Nitric oxide synthase 3) [nM] | Selectivity [1] | IC50 [2] [nM] | Structure (SMILES)
1800 | 5000 | 6.1 | 810 | CC1CSCCC(N)=N1 (stereo not drawn)
440 | 1000 | 5.2 | 190 | CCC[C@H]1CSCCC(N)=N1
2700 | 6000 | 5.3 | 1100 | NC1=NC(CO)CSCC1 (stereo not drawn)
590 | 1100 | 3.7 | 310 | CCC1CSCCC(N)=N1 (stereo not drawn)
 | 450 |  |  | NC1=NCCCOC1
1000 | 5000 | 1.6 | 3000 | CC1CC(N)=NCCS1 (stereo not drawn)
830 | 4100 | 1.1 | 3500 | CC1CN=C(N)CCS1 (stereo not drawn)
